The text below walks through data of PMC9817970 (Cancers, 2022).

In this test the target is c-KIT (Homo sapiens, UniProt P10721). Put plainly: Kinase panel profiling. The test is classed as biochemical. Conditions: 10 μM ATP. The arrangement: purchased Reaction Biology Corp. Here is the method: Kinase panel profiling was conducted by Reaction Biology Corp. (San Diego, CA, USA). A single dose (1.0 μM) of 6r was tested against 371 recombinant human kinases in the presence of 10 μM ATP.
Sequence of c-KIT (P10721 26-976): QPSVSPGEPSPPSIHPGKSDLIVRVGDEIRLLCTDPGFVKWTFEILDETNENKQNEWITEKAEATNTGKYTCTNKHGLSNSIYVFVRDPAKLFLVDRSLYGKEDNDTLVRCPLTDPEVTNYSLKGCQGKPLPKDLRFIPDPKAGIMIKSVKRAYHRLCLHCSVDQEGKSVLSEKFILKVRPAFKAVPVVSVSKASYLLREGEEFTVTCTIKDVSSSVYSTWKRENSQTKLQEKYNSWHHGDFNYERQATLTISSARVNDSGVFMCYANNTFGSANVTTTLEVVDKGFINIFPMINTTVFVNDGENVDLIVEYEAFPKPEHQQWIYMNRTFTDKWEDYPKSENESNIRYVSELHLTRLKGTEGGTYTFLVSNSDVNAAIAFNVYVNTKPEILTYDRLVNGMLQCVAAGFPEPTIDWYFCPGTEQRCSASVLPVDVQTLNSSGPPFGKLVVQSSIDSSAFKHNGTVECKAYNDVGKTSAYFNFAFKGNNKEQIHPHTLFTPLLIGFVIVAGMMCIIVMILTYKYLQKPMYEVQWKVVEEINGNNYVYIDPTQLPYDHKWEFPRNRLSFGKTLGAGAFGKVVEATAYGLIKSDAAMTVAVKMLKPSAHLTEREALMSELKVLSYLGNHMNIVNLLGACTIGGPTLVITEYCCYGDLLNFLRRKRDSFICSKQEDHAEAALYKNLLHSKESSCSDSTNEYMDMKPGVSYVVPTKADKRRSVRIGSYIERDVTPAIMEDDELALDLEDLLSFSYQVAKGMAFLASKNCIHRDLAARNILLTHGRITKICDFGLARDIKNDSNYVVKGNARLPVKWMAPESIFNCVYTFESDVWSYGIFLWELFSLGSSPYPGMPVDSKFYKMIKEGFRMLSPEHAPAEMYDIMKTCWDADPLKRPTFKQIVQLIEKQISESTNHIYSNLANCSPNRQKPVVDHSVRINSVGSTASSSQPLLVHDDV

`Cc1ccc(NC(=O)c2ccc(CN3CCN(C)CC3)c(C(F)(F)F)c2)cc1-c1cnc2sc(N)nc2c1` [6r] showed an inhibition at 1 µM of 98.7%.
